Results: patent US12508280B2, “Formulations for improving gut health” (DSM IP ASSETS B.V., priority 2018, dated 2025)

Assays:
[1] = system: fecal suspension from the selected donor; test: Intestinal batch fermentation, SCFA production (first set); type: cell-based, human; conditions: 5× dose; after 48 h fermentation; vs corresponding control
Experimental: In a first set of in vitro experiments at the start of intestinal batch fermentation incubation, all test ingredients were added from stock solutions to the modified nutritional medium, containing (g/l): 2.5 K2HPO4, 10.9 KH2PO4, 2 NaHCO3, 2 yeast extract, 2 peptone, 1 mucin, 0.5 cysteine, 2 Tween 80, 2 glucose, 2 starch, 2 cellobiose, 0.1 NaCl, 0.01 MgSO4·7H2O, 0.01 CaCl2·6H2O, 0.05 hemin, 0.5 bile salts.
The other compounds were prepared in ethanol: • Vitamin K1 (VK1), • MEG-3 0080 EE Oil (MEG-3 0080 EE), • MEG-3 4535 EE Oil (MEG-3 4535 EE), • MEG-3 8000 EE Oil (MEG-3 8000 EE).
(§1) Since ethanol is known to have antimicrobial effects, two blanks for each type of stock solution were included. As a source of the microbial community, a freshly prepared fecal suspension from the selected donor was added to the reactors. […] All tests, except the blanks, were performed in single repetition, resulting in 40 independent incubations, as specified in Table 1. Incubation conditions of the pre-screening experiment and the final experiment were 48 h at 37° C., under shaking (90 rpm) and anaerobic conditions. DNA were extracted from effluent samples collected from each fermentation flask before (0 h fermentation) and after fermentation (24 h fermentation) and use for microbiome composition analysis by Shotgun sequencing. Effluent samples were collected from each fermentation flask before (0 h fermentation) and after fermentation (48 h fermentation), sterilized by filtering through 0.22 μm filters and used for short chain fatty acids (SCFA), quantification of immunological biomarkers and in vitro analysis in cell culture systems.
Short chain fatty acids (SCFA) are an assessment of the microbial carbohydrate metabolism (acetate, propionate and butyrate) or protein metabolism (branched SCFA) and can be compared to typical fermentation patterns for normal GI microbiota. Samples for SCFA analysis were analyzed after 0, 6, 24 and 48 h of incubation for both set of in vitro experiments, above.
SCFA were extracted from the samples with diethyl ether, after the addition of 2-methyl hexanoic acid as an internal standard. Extracts were analysed using a GC-2014 gas chromatograph (Shimadzu's-Hertogenbosch, the Nether-lands), equipped with a capillary fatty acid-free EC-1000Econo-Cap column (dimensions: […]×0.53 mm, film thickness […]; Alltech, Laarne, Belgium), a flame ionization detector and a split injector. The injection volume was […] and the temperature profile was set from 110 to 160° C., with a temperature increase of 6° C. min-1. The carrier gas was nitrogen and the temperature of the injector and detector were […] and 220° C., respectively. The production of unbranched and branched SCFA was calculated by summing the molar concentrations of acetate, propionate, butyrate, valerate and caproate, and summing isobutyrate, isovalerate and isocaproate molar concentrations, respectively. The total SCFA production was defined as the sum of unbranched and branched SCFA.

[2] = system: Co-cultures of Caco-2 and HT29-MTX-E12 cells; test: Barrier integrity (TEER), healthy gut model; type: cell-based; conditions: 48 h minus 0 h fermentation samples, vs corresponding control
Experimental: (§5) Co-cultures of Caco-2 and HT29-MTX-E12 cells were used to assess the protective effect of the supernatants before (0 h) and after fermentation (48 h) for both sets of in vitro experiments above.
(§6) CaCo-2 ECACC 86010202 and HT29-MTX-E12 ECACC 12040401 cells (both from European Collection of Cell Cultures, Salisbury, UK) were both cultured at 37° C., in atmosphere of 5% CO2 in DMEM medium supplemented with 4.5 g/L D-Glucose, 4 mM L-Glutamine, 1 mM Sodium Pyruvate, 1% MEM Non-Essential Amino Acids, 50 μg/mL Gentamicin (Life Technologies Europe B.V., Zug, Switzerland) and 10% heat-inactivated FBS (Sigma-Aldrich, Buchs, Switzerland). Sub-confluent cells were trypsinized using 0.25% Trypsin/EDTA (Life Technologies Europe B.V., Zug, Switzerland) and passaged at a ratio of 1:5-1:10 twice a week. Cells between passages 55 and 85 were used for this study.
(§7) Cells were seeded at a density of 20000 cells/well in a 7:3 ratio (Caco-2:HT29-MTX-E12) in Corning HTS Transwell-24 system PET membranes, 0.4 μM pore size, cell growth area 0.33 cm2/well (Corning BV, Amsterdam, Netherlands) and cultured as described above. Media was changed every second to third day.
For both sets of in vitro experiments, after cells being 13 days in culture, initial transepithelial electrical resistance (TEER) readings were obtained using an EVOM2 Voltohmmeter (EVOM, World Precision Instruments, Berlin) equipped with STX100 Electrodes. TEER values correlate with the tightness of the confluent monolayer (Srinivasan et al. 2015).
The background TEER (insert) was subtracted from total TEER (cell monolayer plus insert) to yield the monolayer resistance and then normalized to surface area by multiplying with the area of the insert (Srinivasan et al. 2015). The integrity of the monolayer was determined at basal level by measuring TEER. A TEER of 300 Ωcm2 was regarded as a tight monolayer (see results section). Afterwards, the cells were treated with sterile filtered fermentation supernatants or fermentation medium as a control (diluted 1:20 in growth media). After 24 h incubation the resistance across each cell monolayer was measured again and the percentage change in TEER compared to initial TEER for each insert was calculated to represent a healthy gut model. All TEER measurements were done by placing the plates containing the inserts on a 37° C. warming plate and were performed in the same duration.

HT29 cells = test: HT29 cell culture, quantification of immunological biomarkers; type: cell-based; conditions: 5× dose; effluent from 24 h fermentation; vs corresponding control
Experimental: as §1, with “([…]), […]” for “(0 h fermentation) and after fermentation (48 h fermentation), sterilized by filtering through 0.22 μm filters and used for short chain fatty acids (SCFA), quantification of immunological biomarkers and in vitro analysis in”
For both sets of in vitro experiments, HT29 cells were obtained from American Type Culture Collection (Manassas, VA). Cells were cultured in DMEM supplemented with 10% fetal bovine serum (FBS), 50 units/ml penicillin, 50 μg/ml streptomycin, L-glutamine, and nonessential amino acids (Life Technologies Europe B.V., Zug, Switzerland). Cells were seeded into 12-well plates at 8×10^5 cells per well and used after 2 days of preculture. They were starved in DMEM containing 0.25% FBS for 18 h before treatment. Cells were treated for 24 hours with TNF-α at 100 ng/mL or fermentation supernatants which were sterile filtered and diluted 1:20 in DMEM containing 0.25% FBS. All treatments were done in triplicate. Consequently, cytokines, chemokines and interleukins were quantified in HT29 supernatants using the Luminex Technology (LiquiChip Workstation IS 200, Qiagen, Hilden, Germany) with Bio-Plex Pro Human Cytokine Panel kits (Bio-Rad, Hercules, CA) or with Luminex Screening Assay kits (R&D Systems, Inc., Minneapolis, MN), following the manufacturer's instructions. The data were acquired with the Luminex IS 2.3 software and evaluated with the LiquiChip Analyser software (Qiagen, Hilden, Germany).

[3] = system: fecal microbial community; test: Microbiome composition by shotgun sequencing: alpha diversity (first set); type: cell-based, human; conditions: after 24 h fermentation, vs corresponding control
Experimental: as §1
(§2) For the first set of in vitro experiments, total DNA was extracted from all samples collected throughout the study using the QIAamp DNA stool minikit (Qiagen, Crawley, United Kingdom) according to the manufacturer's instructions, apart from addition of a bead-beating step and increasing the lysis temperature to 95° C. as described previously (McCormack et al., 2018).
(§3) After DNA isolation, DNA was quantified using the Qubit High Sensitivity DNA assay (Thermo Fisher). Whole metagenome libraries were then prepared using the Illumina Nextera XT kit (Illumina) in accordance with the manufacturer's instructions, with the following modifications: Firstly, tagmentation time was increased to 7 min and secondly, following incorporation of indices and Ampure purification of the products, the samples were each individually sized by running on an Agilent High Sensitivity Chip (Agilent) and quantified using the Qubit High Sensitivity DNA assay (Thermo Fisher) in accordance with Teagasc Sequencing Platform SOPs. The samples were then pooled equimolarly and sequenced on the Illumina NextSeq 500 with a NextSeq 500/550 v2 high-output reagent kit (300 cycles). All sequencing was done in the Teagasc sequencing facility in accordance with standard Illumina sequencing protocols.
(§4) Delivered raw FASTQ sequence files were quality checked as follows: poor quality and duplicate read removal, as well as trimming was implemented using a combination of SAM and Picard tools. Taxonomy was assigned to the reads using the Kraken software and functional analysis was performed with Super focus.

Bifidobacterium = test: Microbiome composition by shotgun sequencing: Bifidobacterium (first set); type: cell-based, human; conditions: after 24 h fermentation, vs corresponding control
Experimental: as §1, §2, §3, §4

[4] = system: Co-cultures of Caco-2 and HT29-MTX-E12 cells; test: Barrier integrity, leaky gut model, apical stressor Rhamnolipids; type: cell-based; conditions: vs corresponding control; for Lucifer yellow, apical induction of leaky gut cellular model: 48 h fermentation samples; for TEER, apical induction of leaky gut cellular model: 48 h minus 0 h fermentation samples
Experimental: Since ethanol is known to have antimicrobial effects, two blanks for each type of stock solution were included. As a source of the microbial community, a freshly prepared fecal suspension from the selected donor was added to the reactors. […] All tests, except the blanks, were performed in single repetition, resulting in 40 independent incubations, as specified in Table 1. Incubation conditions of the pre-screening experiment and the final experiment were 48 h at 37° C., under shaking (90 rpm) and anaerobic conditions. […] Effluent samples were collected from each fermentation flask before (0 h fermentation) and after fermentation (48 h fermentation), sterilized by filtering through 0.22 μm filters and used for short chain fatty acids (SCFA), quantification of immunological biomarkers and in vitro analysis in cell culture systems.
as §5, §6, §7
For both sets of in vitro experiments, the integrity of cell monolayers after the stressor test was evaluated by both TEER values and by measuring the transport of Lucifer yellow from apical to basolateral compartments (Leaky gut model). A prewarmed HBSS transport buffer composed of Hank's Balanced Salt Solution pH 7.4 with Ca2+ and Mg2+, containing 5.5 mM D-(+)-glucose, Sodium Bicarbonate, and supplemented with 4 mM L-glutamine, 20 mM HEPES (Life Technologies Europe B.V., Zug, Switzerland) was used for all permeability experiments. The inserts were rinsed twice with HBSS using a reservoir tray, 100 μl HBSS were then added to the apical site of the inserts and subsequently moved to new wells with fresh HBSS and allowed to equilibrate at 37° C. for 60 min in the incubator followed by TEER measurement to obtain baseline resistance readings.
Lucifer Yellow CH dilithium salt (Sigma-Aldrich, Buchs, Switzerland) was dissolved in HBSS at a final concentration of 100 μg/ml. Basolateral stressor EtOH (Merck, KgaA, Darmstadt, Germany) was diluted to 5% in HBSS. Apical Stressor Rhamnolipids R90 (AGAE Technologies, Corvallis, USA) was dissolved in HBSS containing Lucifer Yellow at a final concentration of 350 μg/ml. All solutions were prepared freshly each time.
The HBSS transport buffer from the basolateral chamber was aspirated first, then the HBSS from the apical chamber and replaced with Lucifer yellow solution. For the apical stressor test, Lucifer yellow solution containing 350 μg/ml Rhamnolipids or Lucifer yellow solution without stressor for the control wells was loaded into the apical compartment, blank HBSS was subsequently added to the basolateral chamber.

[5] = system: genes involved in Acetyl-CoA fermentation to Butyrate pathway; test: Shotgun sequencing functional analysis: butyrate pathway genes (first set); type: cell-based, human; conditions: after 24 h fermentation, vs corresponding control
Experimental: as §1, §2, §3, §4

[6] = system: fecal suspension from the selected donor; test: Gas production in closed colon incubations (first set); type: cell-based, human; conditions: after 48 h fermentation, vs corresponding control
Experimental: The colon incubations were performed in closed incubation systems. This allowed us to evaluate the accumulation of gasses in the headspace, which can be measured with a pressure meter. Gas production is a measure of microbial activity, and thus of the speed of fermentation of the potentially prebiotic substrates. It can be used as an indication for bloating and digestive wellbeing upon prebiotic consumption.
as §1
For both sets of in vitro experiments, colon incubations were performed in closed incubation systems as described above. This allowed to evaluate the accumulation of gasses in the headspace, which can be measured with a pressure meter. Gas production is a measure of microbial activity, and thus of the speed of fermentation of the potentially prebiotic substrates

| Structure (SMILES) | butyrate production [1] | TEER, healthy gut cellular model ([2]; 0.2× dose) | IL-8 production by HT29 cells (HT29 cells) | microbiome alpha diversity (Shannon diversity index) ([3]; 0.2× dose) | microbiome alpha diversity (Shannon diversity index) ([3]; 1× dose) | Bifidobacterium relative abundance (Bifidobacterium; 0.2× dose) | Bifidobacterium relative abundance (Bifidobacterium; 1× dose) | Lucifer yellow, apical induction of leaky gut cellular model ([4]; 0.2× dose) | TEER, apical induction of leaky gut cellular model ([4]; 0.2× dose) | relative abundance of genes involved in Acetyl-CoA fermentation to Butyrate pathway ([5]; 0.2× dose) | relative abundance of genes involved in Acetyl-CoA fermentation to Butyrate pathway ([5]; 1× dose) | TEER, healthy gut cellular model ([2]; 1× dose) | gas production ([6]; 1× dose) | gas production ([6]; 5× dose) | microbiome alpha diversity (Shannon diversity index) ([3]; 5× dose) | Lucifer yellow, apical induction of leaky gut cellular model ([4]; 1× dose) | TEER, apical induction of leaky gut cellular model ([4]; 1× dose) | relative abundance of genes involved in Acetyl-CoA fermentation to Butyrate pathway ([5]; 5× dose) |
| --- | --- | --- | --- | --- | --- | --- | --- | --- | --- | --- | --- | --- | --- | --- | --- | --- | --- | --- |
| Cc1cc2nc3c(=O)[nH]c(=O)nc-3n(C[C@H](O)[C@H](O)[C@H](O)COP(=O)(O)O)c2cc1C [Vitamin B2-5-phosphate, Riboflavin-5-phosphate] | increase butyrate production | increase TEER | increase IL-8 production | increase microbiome diversity | increase microbiome diversity | increase Bifidobacterium relative abundance | increase Bifidobacterium relative abundance | decrease Lucifer yellow | increase TEER | increase relative abundance | increase relative abundance | – | – | – | – | – | – | – |
| O=C1O[C@H]([C@@H](O)CO)C(O)=C1O [Vitamin C, Ascorbic acid] | – | – | – | – | – | – | increase Bifidobacterium relative abundance | decrease Lucifer yellow | increase TEER | – | – | increase TEER | reduced gas production | reduced gas production | increase microbiome diversity | decrease Lucifer yellow | increase TEER | increase relative abundance |
